Test results from patent US20060069045A1, “Methods for treating familial dysautonomia” (priority 2004, published 2006).

Legend:
Type in all cases: cell-based, human
IKAP transcript [1] = assay: real-time RT-PCR analysis of IKAP RNA levels (exon 20-containing, exon 20-lacking) in treated cells; settings: for level of the wild-type of IKAP transcript: GM04663 cells, 24 h, each agent by itself (5 ug/ml EGCG; 6.25 ug/ml δ-tocotrienol)
Description: (§1) In order to identify agents that could modulate the level of the wild type IKAP transcript produced in FD-derived cells, either by increasing transcription or modulating splicing, FD-derived fibroblast cells (GM04663) were treated with EGCG. RNA was isolated from GM04663 cells treated for 24 h with varying concentrations of EGCG was subjected to real-time RT-PCR analysis using a pair of primers that recognize both of the hnRNP A2/B1 transcripts. More specifically, FD-derived fibroblast cells, seeded in 96-well plates were treated in triplicate for approximately 24 h unless noted otherwise. After treatment, the cells were washed once with PBS and then lysed in 50 μl Cell-to-cDNA lysis buffer (Ambion) at 75° C. for 12 min. After one freeze-thaw cycle, 4 μl of lysate was used in 20 μl RT-PCR. The Quantitect SYBR Green RT-PCR Kit (Qiagen) was used for real-time RT-PR analysis of the relative quantities of the exon 20-containing transcript (wild-type), the exon 20-lacking transcript (mutant), and exon 34-35 containing transcript that is unaffected by the FD-causing mutation (total), as well as the hnRNP A2/B1 and hnRNP A1 transcripts.
The primers used for these analyses were as follows: for the exon 20-containing transcript, 5′-AGTTGTTCATCATCGAGC-3′ (SEQ ID NO: 3) and 5′-[…]-3′ (SEQ ID NO: 4); for exon 20-lacking transcript, 5′-[…]-3′ (SEQ ID NO: 5) and 5′-[…]-3′ (SEQ ID NO: 6); for exon […] containing transcript, 5′-GAGATCATCCAAGAATCGC-3′ (SEQ ID NO: 7) and 5′-GGTAGCTGAATTCTGCTG-3′ (SEQ ID NO: 8); for hnRNP A2/B1 transcript, 5′-GAGTTGTTTCTCGAGCAG-3′ (SEQ ID NO: 9) and 5′-TGATCTTTTGCTTGCAGG-3′ (SEQ ID NO: 10); and for hnRNP A1 transcript, 5′-[…]-3′ (SEQ ID NO: 11) and 5′-[…]-3′ (SEQ ID NO: 12). Primers were used at a concentration of 0.5 μM. An ABI PRISM 7000 Sequence Detection System (Applied Biosystems), programmed as follows, was used to perform the real-time RT-PCR and analysis: 50° C.×30 min and 95° C.×15 min for one cycle, followed by 40 cycles of 94° C.×15 s, 57-60° C.×30 s, and 72° C.×30 s. To present relative amounts of PCR product obtained, results are expressed as changes in the threshold cycle (ΔCT) compared to untreated cells. The threshold cycle refers to the PCR cycle at which the fluorescence of the PCR is increased to a calculated level above background. A change of 1.0 in CT, assuming 100% PCR efficiency, would reflect a twofold change in the starting amount of the RNA template that was amplified.
To control for the amount of RNA present in the samples, RT-PCR amplification of ribosomal 18S RNA was performed on all cell lysates. […] For this analysis, TaqMan Ribosomal RNA Control Reagents were used with the TaqMan EZ RT-PCR Kit (Applied Biosystems) as per the manufacturer's protocol.
(§2) To determine the effect of EGCG on the cellular level of the exon 20-containing (wild type) IKAP mRNA, FD-derived and normal fibroblasts were treated with 50 μg/ml EGCG for varying lengths of time. The levels of hnRNP A2/B1, hnRNP A1, IKAP exon 20-containing (wild type), IKAP exon 20-lacking (mutant), and IKAP exon 34-35-containing (total) transcripts were determined (FIG. 3).

hnRNP A1 = assay: Western blot analysis of hnRNP A1 in EGCG-treated cells; settings: GM00850 and GM04663 cells, 24 h, 50 μg/ml EGCG
Description: (§3) The GM00850 and GM04663 cell lines, homozygous for the IVS20^+6T→C FD-causing mutation, and the GM02912 cell line, derived from an unaffected individual, were obtained from the NIGMS Human Genetic Mutant Cell Repository. LA1-55n cells were provided by Dr. Robert A. Ross. EGCG and δ-tocotrienol were purchased from Calbiochem. A monoclonal antibody generated against a peptide encoded by exons 23-28 of IKBKAP was purchased from BD Biosciences. The 4B10 and DP3B3 monoclonal antibodies, which recognize hnRNP A1 and hnRNP A2/B1, respectively, were provided by Dr. Gideon Dreyfuss.
(§4) GM00850 and GM04663 cells treated for 24 h with 50 μg/ml of EGCG were washed twice with PBS and lysed in 0.5 M Tris-HCl, pH 6.8, containing 1.4% SDS. Western blot analysis was performed essentially as described by Rubin et al. (Proc. Natl. Acad. Sci. USA 82: 6637-41 (1985)). Equal amounts of protein fractionated on a 7% NuPAGE Tris-Acetate Gel (Invitrogen) were blotted onto nitrocellulose (Bio-Rad) and probed overnight with a monoclonal antibody (BD Biosciences) to IKAP that is directed against the carboxyl end (exons 23-28) of IKAP and therefore recognizes the full-length protein. The blot was then washed and probed with a goat anti-mouse antibody conjugated to alkaline phosphatase (Promega), followed by detection with Western Blue Substrate solution (Promega). […]

hnRNP A2/B1 = assay: Western blot analysis of hnRNP A2/B1 in EGCG-treated cells; settings: GM00850 and GM04663 cells, 24 h, 50 μg/ml EGCG
Description: as §3, §4

IKAP transcript [2] = assay: RT-PCR with primers in exons 19 and 23, agarose gel, of wild-type and mutant IKAP transcripts; settings: 24 h, 50 μg/ml EGCG
Description: The effect of EGCG treatment was further monitored by RT-PCR analysis using primers located in exons 19 and 23 capable of amplifying both the normal and mutant forms of the IKAP transcript. 4 μl of cell lysates produced as described above was used in 20 μl RT-PCR using the One Step RT-PCR Kit (Qiagen) with the following primers which recognize sequences in exons 19 and 23 of IKBKAP: 5′-GCAGCAATCATGTGTCCCA-3′ (SEQ ID NO: 1) and 5′-TAGCATCGCAGACAAGGTC-3′ (SEQ ID NO: 2). The RT-PCR was carried out as follows: one cycle of 50° C.×30 min and 95° C.×15 min, followed by 41 cycles of 94° C.×20 s, 60° C.×30 s and 72° C.×15 s, and then a final extension of 72° C.×2 min. PCR products were analyzed on a 2% agarose gel.

hnRNP A2/B1 transcript = assay: real-time RT-PCR analysis of hnRNP A2/B1 transcripts in EGCG-treated cells
Description: as §3
as §1, with “transcripts. […]” for “transcripts. More specifically, FD-derived fibroblast cells, seeded in 96-well plates were treated in triplicate for approximately 24 h unless noted otherwise. After treatment, the cells were washed once with PBS and then lysed in 50 μl Cell-to-cDNA lysis buffer (Ambion) at 75° C. for 12 min. After one freeze-thaw cycle, 4 μl of lysate was used in 20 μl RT-PCR.”, “transcripts. […]” for “transcripts.”

IKAP = assay: Western blot analysis of full-length IKAP in treated FD-derived cells; settings: FD-derived GM00850 and GM04663 fibroblasts, 24 h, 50 μg/ml EGCG
Description: as §3, §4

hnRNP A1 transcript = assay: real-time RT-PCR analysis of hnRNP A1 transcript in EGCG-treated cells; settings: FD-derived and normal fibroblasts, 50 μg/ml EGCG, varying lengths of time
Description: as §1, with “noted otherwise. […] The Quantitect” for “noted otherwise. After treatment, the cells were washed once with PBS and then lysed in 50 μl Cell-to-cDNA lysis buffer (Ambion) at 75° C. for 12 min. After one freeze-thaw cycle, 4 μl of lysate was used in 20 μl RT-PCR. The Quantitect”, “A1 transcripts. […]” for “A1 transcripts.”
as §2

**Q.** For `CC(C)=CCC/C(C)=C/CC/C(C)=C/CC[C@]1(C)CCc2cc(O)cc(C)c2O1` [8-tocotrienol, δ-tocotrienol, reference compound], which “level of the wild-type of IKAP transcript” value (IKAP transcript [1]) is on record?
**A.** did not result in a significant elevation

**Q.** With `O=C(O[C@@H]1Cc2c(O)cc(O)cc2O[C@@H]1c1cc(O)c(O)c(O)c1)c1cc(O)c(O)c(O)c1` [EGCG, epigallocatechin gallate] as the molecule, how does the “level of the exon 20-lacking transcript” value (IKAP transcript [1]; 50 μg/ml EGCG, varying lengths of time) read?
**A.** not affected

**Q.** What about the “exon 20-containing IKAP transcript” value (IKAP transcript [1]; FD-derived cells, 50 μg/ml EGCG, varying lengths of time) of the same molecule?
**A.** elevated

**Q.** What about the “level of the wild-type of IKAP transcript” value (IKAP transcript [1]) of the same molecule?
**A.** did not result in a significant elevation

**Q.** What about the “exon 20-containing IKAP transcript” value (IKAP transcript [1]; normal cells (GM02912), 50 μg/ml EGCG, varying lengths of time) of the same molecule?
**A.** failed to exhibit an increase

**Q.** What about the “hnRNP A1 levels (Western blot)” value (hnRNP A1) of the same molecule?
**A.** unaffected

**Q.** And the “level of hnRNP A2/B1 (Western blot)” value (hnRNP A2/B1)?
**A.** suppress the level

**Q.** What about the “exon 20-containing transcript (RT-PCR, exons 19-23, gel)” value (IKAP transcript [2]; FD-derived cells) of the same molecule?
**A.** clear enhanced presence

**Q.** What about the “exon 20-containing transcript (RT-PCR, exons 19-23, gel)” value (IKAP transcript [2]; normal cells) of the same molecule?
**A.** no effect

**Q.** And the “level of the hnRNP A2/B1 transcript” value (hnRNP A2/B1 transcript; FD-derived GM04663 cells, 24 h, varying concentrations of EGCG)?
**A.** clear concentration-dependent decrease

**Q.** And the “level of the hnRNP A2/B1 transcript” value (hnRNP A2/B1 transcript; FD-derived and normal fibroblasts, 50 μg/ml EGCG, varying lengths of time)?
**A.** time-dependent reduction

**Q.** What about the “amount of IKAP (full-length protein, Western blot)” value (IKAP) of the same molecule?
**A.** clear increase

**Q.** And the “level of the hnRNP A1 transcript” value (hnRNP A1 transcript)?
**A.** no effect
